{
  "source": "patent US11976051B1",
  "about": "“N′-(2-(5-(4-chlorophenyl)-1,3,4-oxadiazol-2-ylthio)acetoxy)-2-naphthimidamide as an antimicrobial compound” (KING FAISAL UNIVERSITY, priority 2023, dated 2024)",
  "key": {"[1]": {"tested_on": "Chrysosporium keratinophilum", "test": "Agar plate disc-diffusion, antifungal activity", "type": "cell-based", "conditions": "Sabouraud's dextrose agar, 72 h", "experimental": "(§1) The agar plate disc-diffusion method was applied. […] The discs were then placed onto the surface of agar plates (nutrient agar for bacteria and Sabouraud's dextrose agar for fungi) seeded with the test organism. Each plate contained 15 mL of the agar medium, previously seeded with 0.2 mL of the broth culture of each organism pregrown for 18 h. The plates were incubated at 37° C. for 48 h, and 72 h for fungi. The inhibition zones was measured in mm. Discs impregnated with DMSO were used as a control, and its inhibition zone was subtracted from the tested compound actual inhibition zone.\n(§2) The antibacterial activity was screened against gram positive bacteria namely Bacillus cereus and Staphylococcus aureus and gram-negative bacterial strains namely Pseudomonas aeruginosa and Escherichia coli, while the antifungal activity was screened against Aspergillus flavus and Chrysosporium keratinophilum as shown in Table 1 and 2."}, "Pseudomonas aeruginosa": {"tested_on": "Pseudomonas aeruginosa", "test": "Agar plate disc-diffusion, antibacterial activity", "type": "cell-based", "conditions": "nutrient agar, 37° C., 48 h", "experimental": "as §1, §2"}, "Staphylococcus aureus": {"tested_on": "Staphylococcus aureus", "test": "Agar plate disc-diffusion, antibacterial activity", "type": "cell-based", "conditions": "nutrient agar, 37° C., 48 h", "experimental": "as §1, §2"}, "Bacillus cereus": {"tested_on": "Bacillus cereus", "test": "Agar plate disc-diffusion, antibacterial activity", "type": "cell-based", "conditions": "nutrient agar, 37° C., 48 h", "experimental": "as §1, §2"}, "Aspergillus flavus": {"tested_on": "Aspergillus flavus", "test": "Agar plate disc-diffusion, antifungal activity", "type": "cell-based", "conditions": "Sabouraud's dextrose agar, 72 h", "experimental": "(§3) The agar plate disc-diffusion method was applied. Sterilized filter papers (6 mm in diameter) were wetted with […] of a solution of N′-(2-(5-(4-chlorophenyl)-1,3,4-oxadiazol-2-ylthio)acetoxy)-2-naphthimidamide (3) to be tested, containing 10 mg/mL in DMSO, and the discs were allowed to air dry. The discs were then placed onto the surface of agar plates (nutrient agar for bacteria and Sabouraud's dextrose agar for fungi) seeded with the test organism. Each plate contained 15 mL of the agar medium, previously seeded with 0.2 mL of the broth culture of each organism pregrown for 18 h. The plates were incubated at 37° C. for 48 h, and 72 h for fungi. The inhibition zones was measured in mm. Discs impregnated with DMSO were used as a control, and its inhibition zone was subtracted from the tested compound actual inhibition zone.\nas §2"}, "Escherichia coli": {"tested_on": "Escherichia coli", "test": "Agar plate disc-diffusion, antibacterial activity", "type": "cell-based", "conditions": "nutrient agar, 37° C., 48 h", "experimental": "as §3, §2"}, "[2]": {"conditions": "A = concentration of comp. = 10,000 μg/mL"}, "[3]": {"conditions": "B = concentration of comp. = 30,000 μL"}, "[4]": {"conditions": "C = concentration of comp. = 50,000 μL"}, "[5]": {"conditions": "A = concentration of comp. = 10 mg/mL"}},
  "data": [
    {"smiles": "N/C(=N\\OC(=O)CSc1nnc(-c2ccc(Cl)cc2)o1)c1ccc2ccccc2c1", "note": "[Compound 3, N′-(2-(5-(4-chlorophenyl)-1,3,4-oxadiazol-2-ylthio)acetoxy)-2-naphthimidamide]", "values": [
      {"measurement": "inhibition zone, Chrysosporium keratinophilum", "setting": "[1]; [2]", "value": 23, "unit": "mm"},
      {"measurement": "inhibition zone, Chrysosporium keratinophilum", "setting": "[1]; [3]", "value": 29, "unit": "mm"},
      {"measurement": "inhibition zone, Chrysosporium keratinophilum", "setting": "[1]; [4]", "value": 38, "unit": "mm"},
      {"measurement": "inhibition zone, Pseudomonas aeruginosa", "setting": "Pseudomonas aeruginosa; [5]", "value": 26, "unit": "mm"},
      {"measurement": "inhibition zone, Pseudomonas aeruginosa", "setting": "Pseudomonas aeruginosa; [3]", "value": 33, "unit": "mm"},
      {"measurement": "inhibition zone, Pseudomonas aeruginosa", "setting": "Pseudomonas aeruginosa; [4]", "value": 39, "unit": "mm"},
      {"measurement": "inhibition zone, Staphylococcus aureus", "setting": "Staphylococcus aureus; [5]", "value": 17, "unit": "mm"},
      {"measurement": "inhibition zone, Staphylococcus aureus", "setting": "Staphylococcus aureus; [3]", "value": 24, "unit": "mm"},
      {"measurement": "inhibition zone, Staphylococcus aureus", "setting": "Staphylococcus aureus; [4]", "value": 29, "unit": "mm"},
      {"measurement": "inhibition zone, Bacillus Cereus", "setting": "Bacillus cereus; [5]", "value": 31, "unit": "mm"},
      {"measurement": "inhibition zone, Bacillus Cereus", "setting": "Bacillus cereus; [3]", "value": 36, "unit": "mm"},
      {"measurement": "inhibition zone, Bacillus Cereus", "setting": "Bacillus cereus; [4]", "value": 43, "unit": "mm"},
      {"measurement": "inhibition zone, Aspergillus flavus", "setting": "Aspergillus flavus; A = concentration of comp. = 10,000 μL", "value": 25, "unit": "mm"},
      {"measurement": "inhibition zone, Aspergillus flavus", "setting": "Aspergillus flavus; [3]", "value": 28, "unit": "mm"},
      {"measurement": "inhibition zone, Aspergillus flavus", "setting": "Aspergillus flavus; [4]", "value": 37, "unit": "mm"},
      {"measurement": "melting point", "value": "181 to 182", "unit": "°C"},
      {"measurement": "inhibition zone, Escherichia coli", "setting": "Escherichia coli; [2]", "value": 35, "unit": "mm"},
      {"measurement": "inhibition zone, Escherichia coli", "setting": "Escherichia coli; [3]", "value": 41, "unit": "mm"},
      {"measurement": "inhibition zone, Escherichia coli", "setting": "Escherichia coli; [4]", "value": 47, "unit": "mm"}
    ]}
  ]
}
